From US9607202B2, “Methods of generating trophectoderm and neurectoderm from human embryonic stem cells” (UNIVERSITY OF PITTSBURGH—OF THE COMMONWEALTH SYSTEM OF …, priority 2009, dated 2017)

How the values were obtained:
hESCs [1] = assay: hESC viability and OCT4 expression in minimal induction media; format: cell-based, human
[2] = tested on: pluripotent hESCs, line H7; assay: TE-induction and lineage selectivity of hESCs by transcription factor immunostaining (CDX2, brachyury, GATA6, OCT4); format: cell-based, human
Experimental: Pluripotent hESCs, line H7, were grown on mitomycin-treated MEFs (GlobalStem) at normal-density (120,000 cells/6 cm^2), maintained in DSR media (Table 1), and passaged weekly using Collagenase IV (Invitrogen/Gibco) and StemPro®EZPassage™ (Invitrogen) as directed. Cell colonies were briefly spun, resuspended in DSR, and plated onto normal density MEFs in CM (Table1). For TE-directed differentiation, hESCs were passaged at 1:5 dilution onto low-density MEFs (30,000 cells/6 cm^2) using DSR media minus FGF2 supplemented with BMP4 (Invitrogen, PHC7914) 100 ng/mL. Media was changed daily.
Feeder-free hESCs were grown on Geltrex (Invitrogen)-coated plates in StemPro (Invitrogen), passaged weekly with Collagenase IV or Accutase (StemCell Technologies) as directed, resuspended in StemPro and plated onto Geltrex-coated plates. For TE-directed differentiation pluripotent hESCs maintained in StemPro or in Erb's Minimal Induction Media (EMIM) were passaged onto feeder-free, Geltrex-coated plates into respective basal media supplemented with the activin A antagonist, SB431542 (10 uM), and/or BMP4 (100 ng/mL or 500 ng/mL) as indicated. Media was changed daily. Terminal STB differentiation was accomplished by culturing hESCs in EMIM+SB+100 ng/mL BMP4 for 14 days.
In PBS, cell colonies were fixed with 2% paraformaldehyde, permeabilized with 1% Triton X-100 (Sigma, St. Louis Mo.), and non-specific antibody binding blocked with 10% goat serum. Primary antibodies (Table 2) were diluted in 1% goat serum, spun briefly, and incubated overnight at 37° C. After a wash in PBS-Tween 0.05% a species-specific fluorescent secondary antibody (prepared as above) was added for 60 min at 37° C. Cells were washed in PBS-Tween 0.05%, incubated in Hoechst […] (1:10,000), and mounted in Gelvatol polyvinyl alcohol-based media (Sammak et al., 1987).
Nuclear labeling (Hoechst 33342) facilitates automated image segmentation for counting cell number. Since pluripotent hESCs can differentiate along multiple lineages, TE-differentiation was determined by immunostaining for transcription factors localized to the cell's nucleus or cytoplasm (Table 2). Four color microscopy permits co-labeling of cells with markers of pluripotent hESCs (OCT4), TE cells (CDX2), and alternative markers for early differentiation including neurectoderm (nestin), mesoderm (brachyury), or extraembryonic endoderm
(GATA6). TE-induction was determined by two criteria: 1) the percentage of all cells that were CDX2-positive and the fold change of CDX2-nuclear intensity over control, unstimulated cells. […] TE selectivity was determined by a significant percentage of CDX2-positive cells and a suppression of the percentage of nestin-, brachyury-, and GATA6-positive cells.
96-well Microplates were scanned using the 5 or 10× objective on the ArrayScan V Automated image analysis was performed using the Compartmental Analysis BioApplication using Hoechst for identification of nuclei and various transcription factor antibodies (Table 2). Nuclear-specific fluorescence intensity was determined from approximately 300 single cells per well from 3-6 independent wells to produce a well-average nuclear intensity for each measurement Mean and standard deviation were calculated from multiple wells. Fold change of the mean intensities were normalized against matched unstimulated external controls, usually the pluripotent condition, to divide out differences due to efficiency of antibody-antigen binding and chromophore quantum yield. […] Select conditions are additionally compared in bar graph format to show standard deviations and T-tests.

rNSCs = assay: Neuronal differentiation of rNSCs cultured on different surfaces; format: cell-based, rat
Experimental: All coverslips (Fisher scientific, Pittsburgh, Pa.) were adhered onto the bottom of 24-well plate with Kwik Sil (World Precision Instruments, Inc., Sarasota, Fla.). Before cell seeding, the surface of coverslips were sterilized under UV for 30 min, and then immersed into PBS for 30 min. Laminin (BD Biosciences, San Jose, Calif.) coated glass coverslips were also prepared as control substrates for cell culture. […]
(§1) Neuronal differentiation was detected by anti-βIII tubulin for hESCs, anti-NF200 for rNSCs. […]
For rNSCs, neuronal cells (NF200 positive) were counted on the whole coverslips and averaged values across all coverslips were presented as mean±SD. Total cell number was calculated from the number of nuclei. Cell nuclei were counted on ten randomly selected images, averaged, divided by image area and then multiplied by the area of coverslip. […] Cell density was calculated by dividing values of cell number by the image area. Neurite length was measured using Image J and plug-in Neuron J. Length of the primary neurite and all neurites of each cell in each group was measured by tracing the neurites of NF200 positive cells with the tracing algorithm contained in Neuron J. Primary neurite was defined as the longest process out of cell body. […]

hESCs (line UCO6 (HSF6)) = assay: Neuronal differentiation of hESCs on different surfaces; format: cell-based, human
Experimental: All coverslips (Fisher scientific, Pittsburgh, Pa.) were adhered onto the bottom of 24-well plate with Kwik Sil (World Precision Instruments, Inc., Sarasota, Fla.). Before cell seeding, the surface of coverslips were sterilized under UV for 30 min, and then immersed into PBS for 30 min. Laminin (BD Biosciences, San Jose, Calif.) coated glass coverslips were also prepared as control substrates for cell culture.
hESCs, line HSF6 obtained from the University of California-San Francisco and WiCell, respectively were approved by the University of Pittsburgh ESCRO committee with IRB exempt approval. hESCs were maintained in ES-DMEM high glucose with 20% KSR, 1% MEM NEAA (WiCell Research Institute, Madison, Wis.), Pen/Strep (10,000 U/10,000 ug), 1% L-Glutamine (2 mM), and 8 ng/mL bFGF (Invitrogen, Carlsbad, Calif.), and passaged in 50-100 cell clusters as recommended. hESCs were grown on mitomycin-treated MEFs prepared from 14-day CF-1 embryos. Media was changed every other day and colonies were mechanically passaged every […] with a Pasteur pipette. […]
as §1

hESCs [3] = assay: Terminal differentiation to syncytia (percentage of bi- or multi-nucleated cells); format: cell-based, human; settings: neurectoderm culture conditions induced by noggin
hESC = assay: Neurectoderm differentiation from hESCs in noggin media; format: cell-based, human; settings: small colonies from StemPro
Experimental: There are several laboratories that have applied the BMP4 antagonist noggin for differentiation of hESC to neurectoderm or neural stem cells (Ying, Stavridis et al. 2003; Gerrard, Rodgers et al. 2005; Yao, Chen et al. 2006; Cohen, Itsykson et al. 2007). Here, small colonies grown in StemPro are used as the starting material. Cells were plated in StemPro media or neural differentiation media (DMEM/F12 media supplemented with N2/B27). After each day of growth, colonies with the smallest colonies were changed into Noggin media. When colonies grown in noggin had differentiated along a neurectoderm lineage, the cells were fixed for immunostaining. If the colonies had not differentiated, the media was changed and the cells remained in Noggin media for another day. The process was repeated each day for 6-7 days. Cells were immunostained with the following antibodies: Pax6 mouse (Santa Cruz), Otx2 rabbit (Abeam), Nestin mouse (Covance), Alexa 488 goat anti mouse green, Cy3 goat anti rabbit red, Cy5 goat anti mouse far red.

[4] = short-term treatment in StemPro (SB or low-dose BMP4 alone)

Molecule: OCCS [β-mercaptoethanol]
- hESC survival (hESCs [1]; addition to minimal induction media with or without heparin): reduced hESC survival

Molecule: NC(=O)c1ccc(-c2nc(-c3ccc4c(c3)OCO4)c(-c3ccccn3)[nH]2)cc1 [SB, SB431542]
- brachyury expression [2, 4]: significant increase in brachyury expression

Molecule: laminin
- percentage of neurons (NF200 positive cells) (rNSCs; 7 d): higher percentage of neurons
- percentage of neurons (NF200 positive cells) (rNSCs; 14 d): higher percentage of neurons
- number of cells per colony (hESCs (line UCO6 (HSF6)); end of the second week (14 days)): indistinguishable
- adhesion and spreading of hESC embryoid bodies/colonies (hESCs (line UCO6 (HSF6)); feeder-free, within the first week): adhered

Molecule: BMP4: bone morphogenic protein (BMP4), TGFβ superfamily member
- fraction of cell population induced to non-TE lineages ([2]; 100 ng/mL BMP4 in MIM): over half of the cell population
- TE-induction efficiency as frequency of CDX2 staining ([2]; BMP4, monolayer colonies, DSR/MEF culture (low density MEFs minus FGF2), 7 days): 3.6%
- TE-induction efficiency as frequency of CDX2 staining ([2]; BMP4, multilayer colonies, DSR/MEF culture, 7 days): 44.4%
- increase in percent brachyury (T) positive cells ([2]; BMP4 added to StemPro for 48 hours): 6 fold
- CDX2 induction ([2]; BMP4 alone 500 ng/mL in EMIM, day 2): Significant CDX2 induction
- extraembryonic endoderm (GATA6) positive cells ([2]; BMP4 in MIM): ~20%
- mesoderm (brachyury) positive cells ([2]; BMP4 in MIM): over 40%
- OCT4 expression ([2]; BMP4 supplementation on low density MEFs): decreased OCT4 expression
- CDX2 expression ([2]; BMP4 supplementation to EMIM, culture day 7): induced diffuse CDX2 expression
- GATA6 over MIM alone ([2]; BMP4 supplementation to MIM): did not increase
- brachyury over MIM alone ([2]; BMP4 supplementation to MIM): did not increase
- fold induction of CDX2 over MIM alone ([2]; BMP4 supplementation to MIM): significantly increased
- TE-induction efficiency as frequency of CDX2 staining ([2]; StemPro containing BMP4, MEF-free, 4 days): 93.7%
- brachyury expression ([2]; addition of BMP4 to StemPro): dose-dependent, statistically significant increase
- brachyury expression [2, 4]: significant increase in brachyury expression

Molecule: heparin
- hESC viability (hESCs [1]; basal media once BMP4 was supplemented): improve hESC viability

B1: noggin: BMP4 antagonist protein; mouse recombinant noggin (protein, UniProt P97466 28-232, looked up)
Noggin: QHYLHIRPAPSDNLPLVDLIEHPDPIFDPKEKDLNETLLRSLLGGHYDPGFMATSPPEDRPGGGGGPAGGAEDLAELDQLLRQRPSGAMPSEIKGLEFSEGLAQGKKQRLSKKLRRKLQMWLWSQTFCPVLYAWNDLGSRFWPRYVKVGSCFSKRSCSVPEGMVCKPSKSVHLTVLRWRCQRRGGQRCGWIPIQYPIISECKCSC
- multinucleated cells (hESCs [3]): absent
- efficiency of producing Nestin-positive cells (hESC): ~100%
- time to produce Nestin-positive cells (hESC): 3 to 7 days
